Reference: the supplement of paper PMC10307832

How the values were obtained:
Test in all cases: relative viability (nuclei count vs DMSO), 5 days (fraction); higher = more cells survive
IPA-3 + Trametinib = compound: C1=CC=C2C(=C1)C=CC(=C2SSC3=C(C=CC4=CC=CC=C43)O)O [IPA-3] + CC(=O)Nc1cccc(-n2c(=O)n(C3CC3)c(=O)c3c(Nc4ccc(I)cc4F)n(C)c(=O)c(C)c32)c1 [Trametinib] (partner 0.02 µM)
Procedure, shortened: (§1)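 One day after seeding in 1536-well plates, lung cancer cell lines were dosed by pin tool. Dosing was either single-drug or a fixed anchor-drug dose plus five library-drug doses (not always all listed) in √10 steps. After 5 days, nuclei were stained in one fix-and-stain step and counted on 4× images, and relative viability is the nuclei count of treated wells over that of vehicle wells, given as the median of duplicate plates.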

IPA-3 + Pemetrexed = compound: C1=CC=C2C(=C1)C=CC(=C2SSC3=C(C=CC4=CC=CC=C43)O)O [IPA-3] + Nc1nc2[nH]cc(CCc3ccc(C(=O)N[C@@H](CCC(=O)O)C(=O)O)cc3)c2c(=O)[nH]1 [Pemetrexed] (partner 0.2 µM)
Procedure, shortened: as §1

Doramapimod + Luminespib = compound: Cc1ccc(-n2nc(C(C)(C)C)cc2NC(=O)Nc2ccc(OCCN3CCOCC3)c3ccccc23)cc1 [Doramapimod] + CCNC(=O)c1noc(-c2cc(C(C)C)c(O)cc2O)c1-c1ccc(CN2CCOCC2)cc1 [Luminespib] (partner 0.01 µM)
Procedure, shortened: as §1

Doramapimod + AZD7762 = compound: Cc1ccc(-n2nc(C(C)(C)C)cc2NC(=O)Nc2ccc(OCCN3CCOCC3)c3ccccc23)cc1 [Doramapimod] + NC(=O)Nc1cc(-c2cccc(F)c2)sc1C(=O)N[C@H]1CCCNC1 [AZD7762] (partner 0.2 µM)
Procedure, shortened: as §1

| Cell Line | relative viability (IPA-3 + Trametinib; first compound 0.2 µM) | relative viability (IPA-3 + Trametinib; first compound 0.6325 µM) | relative viability (IPA-3 + Trametinib; first compound 2 µM) | relative viability (IPA-3 + Trametinib; first compound 6.325 µM) | relative viability (IPA-3 + Trametinib; first compound 20 µM) | relative viability (IPA-3 + Pemetrexed; first compound 0.2 µM) | relative viability (IPA-3 + Pemetrexed; first compound 0.6325 µM) | relative viability (IPA-3 + Pemetrexed; first compound 2 µM) | relative viability (IPA-3 + Pemetrexed; first compound 6.325 µM) | relative viability (IPA-3 + Pemetrexed; first compound 20 µM) | relative viability (Doramapimod + Luminespib; first compound 0.02 µM) | relative viability (Doramapimod + Luminespib; first compound 0.06325 µM) | relative viability (Doramapimod + Luminespib; first compound 0.2 µM) | relative viability (Doramapimod + Luminespib; first compound 0.6325 µM) | relative viability (Doramapimod + Luminespib; first compound 2 µM) | relative viability (Doramapimod + AZD7762; first compound 0.02 µM) | relative viability (Doramapimod + AZD7762; first compound 0.06325 µM) | relative viability (Doramapimod + AZD7762; first compound 0.2 µM) | relative viability (Doramapimod + AZD7762; first compound 0.6325 µM) | relative viability (Doramapimod + AZD7762; first compound 2 µM) |
| --- | --- | --- | --- | --- | --- | --- | --- | --- | --- | --- | --- | --- | --- | --- | --- | --- | --- | --- | --- | --- |
| PC-3 [JPC-3] | 0.785 | 0.713 | 0.744 | 0.705 | 0.699 | 1.12 | 1.23 | 1.18 | 1.03 | 1.03 | 0.736 | 0.656 | 0.694 | 0.768 | 0.671 | 1.12 | 0.912 | 0.882 | 0.899 | 0.786 |
| CAL-12T | 0.505 | 0.366 | 0.232 | 0.338 | 0.457 | 1.21 | 0.983 | 0.942 | 1.26 | 1.24 | 0.363 | 0.381 | 0.345 | 0.364 | 0.395 | 0.675 | 0.765 | 0.696 | 0.596 | 0.535 |
| COR-L 105 | 0.484 | 0.509 | 0.474 | 0.445 | 0.442 | 1.22 | 0.904 | 1.07 | 1.18 | 1.14 | 0.883 | 0.73 | 0.645 | 0.851 | 0.719 |  |  |  |  |  |
| NCI-H2347 | 0.278 | 0.276 | 0.286 | 0.268 | 0.281 | 0.418 | 0.416 | 0.76 | 0.452 | 0.433 | 0.0162 |  | 0.601 | 0.5 | 0.492 | 0.733 | 0.831 | 0.711 | 0.757 | 0.781 |
| NCI-H2126 | 0.569 | 0.56 | 0.521 | 0.501 | 0.6 | 0.726 | 0.706 | 0.721 | 0.678 | 0.712 | 0.832 | 0.906 | 0.964 | 1.03 | 0.702 | 0.865 | 1.02 | 0.942 | 1.02 | 1.04 |
| NCI-H838 | 0.8 | 0.519 | 0.352 | 0.478 | 0.517 | 0.266 | 0.236 | 0.258 | 0.271 | 0.322 | 0.406 | 0.372 | 0.245 | 0.347 | 0.268 | 0.869 | 0.962 | 0.958 | 0.902 | 0.92 |
| NCI-H1648 | 0.476 | 0.495 | 0.555 | 0.494 | 0.524 | 0.69 | 0.855 | 0.558 | 0.584 | 0.777 |  |  |  |  |  | 0.653 | 0.695 | 0.63 | 0.548 | 0.59 |
| NCI-H1623 |  |  |  |  |  |  |  |  |  |  | 0.555 | 0.505 | 0.52 | 0.571 | 0.464 |  |  |  |  |  |
| SK-LU-1 | 0.585 | 0.474 | 0.506 | 0.467 | 0.571 | 1.16 | 0.938 | 1.01 | 0.926 | 1.14 | 0.208 | 0.204 | 0.172 | 0.218 | 0.186 |  |  |  |  |  |
